Source: patent publication US7429599B2, “Methods for treating or preventing an inflammatory or metabolic condition or inhibiting JNK” (Signal Pharmaceuticals, LLC, priority 2000, dated 2008)

molecular target: T1, His6-JNK2 (Homo sapiens, UniProt P45984); experiment: JNK2 Assay (c-Jun phosphorylation, 32P-ATP filter plate); assay type: biochemical; details: IC50 value in the JNK2 Assay, c-Jun phosphorylation reduced to 50% of control; GST-c-Jun(1-79), 11 μM ATP
T1 construct: His6 (N)
Description: To 10 μL of the test compound in 20%/DMSO/80% dilutien buffer consisting of 20 mM HELPS (pH 7.6), 0.1 mM; EDTA, 2.5 mM magnesium chloride, 0.004% Triton×100, 2 μg/mL leupeptin, 20 mM β-glycerolphosphate, 0.1 mM sodium vanadate, and 2 mM DTT in water is added 30 μL of 50 ng His6-JNK2 in the same dilution buffer. The mixture is preincubated for 30 minutes at room temperature. Sixty microliter of 10 μg GST-c-Jun(1-79) in assay buffer consisting of 20 mM HEPES (pH 7.6), 50 mM sodium chloride, 0.1 mM EDTA, 24 mM magnesium chloride, 1 mM DTT, 25 mM PNPP, 0.05% Triton×100, 11 μM ATP, and 0.5 μCi γ-^32P ATP in water is added and the reaction is allowed to proceed for 1 hour at room temperature. The c-Jun phosphorylation is terminated by addition of 150 μL of 12.5% trichloroacetic acid. After 30 minutes, the precipitate is harvested onto a filter plate, diluted with 50 μL of the scintillation fluid and quantified by a counter. The IC50 values are calculated as the concentration of the test compound at which the c-Jun phosphorylation is reduced to 50% of the control value.

T1 sequence (P45984 whole entry): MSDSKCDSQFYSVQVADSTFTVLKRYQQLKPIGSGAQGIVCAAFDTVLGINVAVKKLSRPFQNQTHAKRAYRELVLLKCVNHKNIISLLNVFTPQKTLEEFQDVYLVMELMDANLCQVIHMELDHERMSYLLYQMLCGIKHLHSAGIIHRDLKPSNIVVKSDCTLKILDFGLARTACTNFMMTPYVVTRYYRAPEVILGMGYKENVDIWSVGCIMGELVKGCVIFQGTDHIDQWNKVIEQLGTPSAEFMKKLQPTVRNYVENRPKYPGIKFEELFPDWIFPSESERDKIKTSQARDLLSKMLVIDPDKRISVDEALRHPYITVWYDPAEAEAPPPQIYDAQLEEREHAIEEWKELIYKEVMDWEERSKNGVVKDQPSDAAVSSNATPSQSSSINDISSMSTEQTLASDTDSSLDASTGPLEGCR

`O=C(c1ccc(Nc2nccc(-c3ccc(Cl)cc3)n2)cc1)N1CCC2(CC1)OCCO2` [Compound 17-139] showed an IC50 of no more than 10 µM.

same assay, conditions: c-Jun phosphorylation reduced to 50% of control; GST-c-Jun(1-79), 11 μM ATP; read-out: IC50 value in the JNK2 Assay

`O=C(c1ccc(Nc2nccc(-c3ccc(Cl)cc3)n2)cc1)N1CCN(Cc2cccnc2)CC1` [Compound 17-161] and `O=C(c1ccc(Nc2nccc(-c3ccc(Cl)cc3)n2)cc1)N1CCN(C(=O)c2ccco2)CC1` [Compound 17-159] cannot be ordered by IC50: no more than 10 µM for the first, no more than 10 µM for the second.

`O=C(NCCCN1CCOCC1)c1ccc(Nc2nccc(-c3ccc(Cl)cc3)n2)cc1` [Compound 17-86] and `O=C(NCCN1CCOCC1)c1ccc(Nc2nccc(-c3ccc(Cl)cc3)n2)cc1` [Compound 17-142] cannot be ordered by IC50: no more than 10 µM for the first, no more than 10 µM for the second.

`CC(=O)N(C)C1CCN(C(=O)c2ccc(Nc3nccc(-c4ccc(Cl)cc4)n3)cc2)C1` (centres unmarked) [Compound 17-163] and `O=C(c1ccc(Nc2nccc(-c3ccc(Cl)cc3)n2)cc1)N1CCC(O)C1` (centres unmarked) [Compound 17-28] cannot be ordered by IC50: no more than 10 µM for the first, no more than 10 µM for the second.

`O=C(Nc1ccc2[nH]ncc2c1)c1ccc(Nc2nccc(-c3ccc(Cl)cc3)n2)cc1` [Compound 17-119] and `CNC(=O)c1ccc(Nc2nccc(-c3ccc(Cl)cc3)n2)cc1` [Compound 17-3] cannot be ordered by IC50: no more than 10 µM for the first, no more than 10 µM for the second.

`CN(C)C(=O)NC1CCN(C(=O)c2ccc(Nc3nccc(-c4ccc(Cl)cc4)n3)cc2)CC1` [Compound 20-5] and `CN(C)CCNC1CCN(C(=O)c2ccc(Nc3nccc(-c4ccc(Cl)cc4)n3)cc2)CC1` [Compound 22-10] cannot be ordered by IC50: no more than 10 µM for the first, no more than 1 µM for the second.

`CCCNC(=O)c1ccc(Nc2nccc(-c3ccc(Cl)cc3)n2)cc1` [Compound 17-132] and `CC(=O)NCCNC(=O)c1ccc(Nc2nccc(-c3ccc(Cl)cc3)n2)cc1` [Compound 17-22] cannot be ordered by IC50: no more than 10 µM for the first, no more than 1 µM for the second.

`CN(C)CCN(Cc1ccccc1)C(=O)c1ccc(Nc2nccc(-c3ccc(Cl)cc3)n2)cc1` [Compound 17-150] and `CN(Cc1ccccc1)C(=O)c1ccc(Nc2nccc(-c3ccc(Cl)cc3)n2)cc1` [Compound 17-157] cannot be ordered by IC50: no more than 10 µM for the first, no more than 10 µM for the second.

`O=C(NC1CCN(C(=O)c2ccc(Nc3nccc(-c4ccc(Cl)cc4)n3)cc2)CC1)N1CCOCC1` [Compound 20-4] and `O=C(c1ccc(Nc2nccc(-c3ccc(Cl)cc3)n2)cc1)N1CCC(N2CCCC2)CC1` [Compound 17-171] cannot be ordered by IC50: no more than 1 µM for the first, no more than 1 µM for the second.

`CN1CCN(C(=O)c2ccc(Nc3nccc(-c4ccc(Cl)cc4)n3)cc2)CC1` [Compound 17-127] and `CC(=O)N1CCN(C(=O)c2ccc(Nc3nccc(-c4ccc(Cl)cc4)n3)cc2)CC1` [Compound 17-129] cannot be ordered by IC50: no more than 1 µM for the first, no more than 1 µM for the second.

`O=C(c1ccc(Nc2nccc(-c3ccc(Cl)cc3)n2)cc1)N1CCC(O)CC1` [Compound 17-20] and `O=C(c1ccc(Nc2nccc(-c3ccc(Cl)cc3)n2)cc1)N1CCC(NCCO)CC1` [Compound 22-11] cannot be ordered by IC50: no more than 1 µM for the first, no more than 1 µM for the second.

`NC(=O)c1ccc(Nc2nccc(-c3cccs3)n2)cc1` [Compound 3-2] and `NC(=O)c1ccc(Nc2nccc(-c3ccccc3)n2)cc1` [Compound 3-4] cannot be ordered by IC50: no more than 1 µM for the first, no more than 1 µM for the second.

`C[C@@H]1CN(C(=O)c2ccc(Nc3nccc(-c4ccc(Cl)cc4)n3)cc2)C[C@H](C)N1` [Compound 17-190] and `O=C(c1ccc(Nc2nccc(-c3ccc(Cl)cc3)n2)cc1)N1CC=CCC1` [Compound 17-144] cannot be ordered by IC50: no more than 1 µM for the first, no more than 10 µM for the second.

`CN(C)C(=O)c1ccc(Nc2nccc(-c3ccc(SCCCO)cc3)n2)cc1` [Compound 17-31] and `CN(C)CCCSc1ccc(-c2ccnc(Nc3ccc(C(N)=O)cc3)n2)cc1` [Compound 3-11] cannot be ordered by IC50: no more than 1 µM for the first, no more than 10 µM for the second.

`CCOC(=O)N1CCN(C(=O)c2ccc(Nc3nccc(-c4ccc(Cl)cc4)n3)cc2)CC1` [Compound 17-137] and `CC(C)NC(=O)CN1CCN(C(=O)c2ccc(Nc3nccc(-c4ccc(Cl)cc4)n3)cc2)CC1` [Compound 17-141] cannot be ordered by IC50: no more than 1 µM for the first, no more than 1 µM for the second.

`CN1CCN(CCCSc2ccc(-c3ccnc(Nc4ccc(C(N)=O)cc4)n3)cc2)CC1` [Compound 3-12] and `NC(=O)c1ccc(Nc2nccc(-c3ccc(SCCCN4CCOCC4)cc3)n2)cc1` [Compound 3-10] cannot be ordered by IC50: no more than 10 µM for the first, no more than 10 µM for the second.

`O=C(c1ccc(Nc2nccc(-c3ccc(Cl)cc3)n2)cc1)N1CCN(c2ccc([N+](=O)[O-])cc2)CC1` [Compound 17-136] and `O=C(c1ccc(Nc2nccc(-c3ccc(Cl)cc3)n2)cc1)N1CCN(c2ccc(F)cc2)CC1` [Compound 17-149] cannot be ordered by IC50: no more than 10 µM for the first, no more than 10 µM for the second.

`NC(=O)c1ccc(Nc2nccc(-c3ccc(S(=O)(=O)c4ccccn4)cc3)n2)cc1` [Compound 3-9] and `NC(=O)c1ccc(Nc2nccc(-c3ccc(S(=O)(=O)c4cccnc4)cc3)n2)cc1` [Compound 3-13] cannot be ordered by IC50: no more than 1 µM for the first, no more than 1 µM for the second.

`COc1ccccc1N1CCN(C(=O)c2ccc(Nc3nccc(-c4ccc(Cl)cc4)n3)cc2)CC1` [Compound 17-135] and `O=C(c1ccc(Nc2nccc(-c3ccc(Cl)cc3)n2)cc1)N1CCN(c2cccc(C(F)(F)F)c2)CC1` [Compound 17-143] cannot be ordered by IC50: no more than 10 µM for the first, no more than 10 µM for the second.

`NC(=O)c1ccc(Nc2nccc(-c3ccc(N4CCOCC4)cc3)n2)cc1` [Compound 3-30] and `NC(=O)c1ccc(Nc2nccc(-c3ccc(N4CCCCC4)cc3)n2)cc1` [Compound 3-26] cannot be ordered by IC50: no more than 10 µM for the first, no more than 10 µM for the second.

`O=C(NCCCN1CCCCC1)c1ccc(Nc2nccc(-c3ccc(Cl)cc3)n2)cc1` [Compound 17-23] and `O=C(NCCCN1CCCC1=O)c1ccc(Nc2nccc(-c3ccc(Cl)cc3)n2)cc1` [Compound 17-54] cannot be ordered by IC50: no more than 10 µM for the first, no more than 10 µM for the second.

`NC(=O)c1ccc(Nc2nccc(-c3ccc(C(=O)O)cc3)n2)cc1` [Compound 3-40] and `NC(=O)c1ccc(Nc2nccc(-c3ccc(Cl)cc3)n2)cc1` [Compound 1, 4-{[4-(4-Chlorophenyl)pyrimidin-2-yl]amino}benzamide] cannot be ordered by IC50: no more than 1 µM for the first, no more than 10 µM for the second.

`O=C(NCCCn1ccnc1)c1ccc(Nc2nccc(-c3ccc(Cl)cc3)n2)cc1` [Compound 17-21] and `CC(O)CNC(=O)c1ccc(Nc2nccc(-c3ccc(Cl)cc3)n2)cc1` (centres unmarked) [Compound 17-26] cannot be ordered by IC50: no more than 1 µM for the first, no more than 10 µM for the second.

`O=C(c1ccc(Nc2nccc(-c3ccc(Cl)cc3)n2)cc1)N1CCC(N2CCCCC2)CC1` [Compound 17-169] and `O=C(c1ccc(Nc2nccc(-c3ccc(Cl)cc3)n2)cc1)N1CCC[C@@H]1CO` [Compound 17-27] cannot be ordered by IC50: no more than 1 µM for the first, no more than 10 µM for the second.

`NC(=O)c1ccc(Nc2nccc(-c3ccc(-n4ccnc4)cc3)n2)cc1` [Compound 3-36] and `CN(C)c1ccc(-c2ccnc(Nc3ccc(C(N)=O)cc3)n2)cc1` [Compound 3-29] cannot be ordered by IC50: no more than 10 µM for the first, no more than 10 µM for the second.

`O=C(c1ccc(Nc2nccc(-c3ccc(Cl)cc3)n2)cc1)N1CCC(c2ccccc2)CC1` [Compound 17-140] and `Cc1noc(C)c1C(=O)NC1CCN(C(=O)c2ccc(Nc3nccc(-c4ccc(Cl)cc4)n3)cc2)CC1` [Compound 20-2] cannot be ordered by IC50: no more than 10 µM for the first, no more than 10 µM for the second.

`CN(C)C(=O)c1ccc(Nc2nccc(-c3ccc(Cl)cc3)n2)cc1` [Compound 17-2] and `NC(=O)c1ccc(Nc2nccc(-c3ccc(S(=O)(=O)CCCO)cc3)n2)cc1` [Compound 3-15] cannot be ordered by IC50: no more than 10 µM for the first, no more than 1 µM for the second.

`O=C(c1ccc(Nc2nccc(-c3ccc(S(=O)(=O)c4ccncc4)cc3)n2)cc1)N1CCN(C(=O)c2ccco2)CC1` [Compound 17-30] and `CC(=O)N1CCN(C(=O)c2ccc(Nc3nccc(-c4ccc(S(=O)(=O)c5ccncc5)cc4)n3)cc2)CC1` [Compound 17-29] cannot be ordered by IC50: no more than 1 µM for the first, no more than 1 µM for the second.

Compound `O=C(c1ccc(Nc2nccc(-c3ccc(SCCCO)cc3)n2)cc1)N1CCN(C(=O)c2ccco2)CC1` [Compound 17-34] has an IC50 of no more than 1 µM.
